Experimental data from US12077503B2, “Substituted cyclic amides and their use as herbicides” (FMC CORPORATION, priority 2015, dated 2024).

What was measured:
Type in all cases: in vivo
[1] = test system: giant foxtail (Setaria faberii); assay: Test A preemergence; conditions: for Plant response rating, Foxtail, Giant: 125 g ai/ha, preemergence, 0 to 100 scale (0 no effect, 100 complete control); for Foxtail, Giant plant response rating (0 to 100 scale): 0 is no effect, 100 is complete control
Summary of the method: (§1)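 Seeds sprayed preemergence with a directed soil spray, or plants at 2 to 10 cm height and one- to two-leaf stage sprayed postemergence, with test chemicals in a non-phytotoxic solvent mixture containing surfactant, in loam soil–sand blend. Injury rated visually against untreated controls after about 10 d in greenhouse, 0 (no effect) to 100 (complete control).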

[2] = test system: ryegrass, Italian (Italian ryegrass, Lolium multiflorum); assay: Test A preemergence; conditions: for Plant response rating, Ryegrass, Italian: 125 g ai/ha, preemergence, 0 to 100 scale (0 no effect, 100 complete control); for Ryegrass, Italian plant response rating (0 to 100 scale): 0 is no effect, 100 is complete control
Summary of the method: as §1

[3] = test system: pigweed (Amaranthus retroflexus); assay: Test A preemergence; conditions: for Plant response rating, Pigweed: 125 g ai/ha, preemergence, 0 to 100 scale (0 no effect, 100 complete control); for Pigweed plant response rating (0 to 100 scale): 0 is no effect, 100 is complete control
[4] = test system: barnyardgrass (Echinochloa crus-galli); assay: Test A preemergence; conditions: for Plant response rating, Barnyardgrass: 125 g ai/ha, preemergence, 0 to 100 scale (0 no effect, 100 complete control); for Barnyardgrass plant response rating (0 to 100 scale): 0 is no effect, 100 is complete control
Summary of the method: as §1

[5] = test system: ragweed (common ragweed, Ambrosia elatior); assay: Test A preemergence; conditions: for Plant response rating, Ragweed: 125 g ai/ha, preemergence, 0 to 100 scale (0 no effect, 100 complete control); for Ragweed plant response rating (0 to 100 scale): 0 is no effect, 100 is complete control
Summary of the method: as §1

[6] = test system: Kochia (Kochia scoparia); assay: Test A preemergence; conditions: for Plant response rating, Kochia: 125 g ai/ha, preemergence, 0 to 100 scale (0 no effect, 100 complete control); for Kochia plant response rating (0 to 100 scale): 0 is no effect, 100 is complete control
Summary of the method: as §1

[7] = test system: giant foxtail (Setaria faberii); assay: Test A postemergence
Summary of the method: as §1

[8] = test system: corn (Zea mays); assay: Test A postemergence
Summary of the method: as §1

[9] = test system: ryegrass, Italian (Italian ryegrass, Lolium multiflorum); assay: Test A postemergence
Summary of the method: as §1

[10] = test system: pigweed (Amaranthus retroflexus); assay: Test A postemergence
Summary of the method: as §1

[11] = test system: barnyardgrass (Echinochloa crus-galli); assay: Test A postemergence
Summary of the method: as §1

[12] = test system: Galium (catchweed bedstraw, Galium aparine); assay: Test A postemergence
Summary of the method: as §1

[13] = test system: blackgrass (Alopecurus myosuroides); assay: Test A postemergence
Summary of the method: as §1

[14] = test system: ragweed (common ragweed, Ambrosia elatior); assay: Test A postemergence
Summary of the method: as §1

[15] = test system: Kochia (Kochia scoparia); assay: Test A postemergence
Summary of the method: as §1

[16] = test system: wheat (Triticum aestivum); assay: Test A postemergence
Summary of the method: as §1

[17] = test system: sedge, umbrella (small-flower umbrella sedge, Cyperus difformis); assay: Test B flooded paddy test; conditions: Flood, 250 g ai/ha; 0 to 100 scale where 0 is no effect and 100 is complete control; 13 to 15 d
Summary of the method: (§2)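 Evaluation by eye, against controls, occurred 13–15 d post-treatment in a greenhouse, using a 0 (no effect) to 100 (complete control) scale. Application was into the paddy water, 3 cm deep over the soil, on 2-leaf plants.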

[18] = test system: rice (Oryra sativa); assay: Test B flooded paddy test; conditions: Flood, 250 g ai/ha; 0 to 100 scale where 0 is no effect and 100 is complete control; 13 to 15 d
Summary of the method: as §2

[19] = test system: barnyardgrass (Echinochloa crus-galli); assay: Test B flooded paddy test; conditions: Flood, 250 g ai/ha; 0 to 100 scale where 0 is no effect and 100 is complete control; 13 to 15 d
Summary of the method: as §2

[20] = test system: ducksalad (Heteranthera limosa); assay: Test B flooded paddy test; conditions: Flood, 250 g ai/ha; 0 to 100 scale where 0 is no effect and 100 is complete control; 13 to 15 d
Summary of the method: as §2

[21] = 500 g ai/ha, postemergence, 0 to 100 scale, 0 no effect, 100 complete control
[22] = Postemergence, 125 g ai/ha, visual injury, 0 to 100 scale (0 no effect, 100 complete control), approx. 10 d
[23] = Preemergence, 500 g ai/ha, visual injury approx. 10 d
[24] = 125 g ai/ha, postemergence, visual injury rating on 0 to 100 scale (0 no effect, 100 complete control), approx. 10 d

SMILES	Plant response rating, Foxtail, Giant [1]	Plant response rating, Ryegrass, Italian [2]	Plant response rating, Pigweed [3]	Plant response rating, Barnyardgrass [4]	Plant response rating, Ragweed [5]	Plant response rating, Kochia [6]	Plant response rating, Foxtail, Giant [7, 21]	Plant response rating, Corn [8, 21]	Plant response rating, Ryegrass, Italian [9, 21]	Plant response rating, Pigweed [10, 21]	Plant response rating, Barnyardgrass [11, 21]	Plant response rating, Galium [12, 21]	Plant response rating, Blackgrass [13, 21]	Plant response rating, Ragweed [14, 21]	Plant response rating, Kochia [15, 21]	Plant response rating, Wheat [16, 21]	Plant response rating, Sedge, Umbrella [17]	Plant response rating, Rice [18]	Plant response rating, Barnyardgrass [19]	Plant response rating, Ducksalad [20]	further results
Cc1ccc(C2CNC(=O)C2C(=O)Nc2ccc(F)cc2F)cc1F (racemic) [Compound 370]	90	0	0	90	0	0	70	20	20	0	90	60	40	50	0	20	30	0	60	100	Foxtail, Giant plant response rating (0 to 100 scale) ([1]; Preemergence, 500 g ai/ha): 90; Ryegrass, Italian plant response rating (0 to 100 scale) ([2]; Preemergence, 500 g ai/ha): 0; Pigweed plant response rating (0 to 100 scale) ([3]; Preemergence, 500 g ai/ha): 0; Barnyardgrass plant response rating (0 to 100 scale) ([4]; Preemergence, 500 g ai/ha): 90; Ragweed plant response rating (0 to 100 scale) ([5]; Preemergence, 500 g ai/ha): 20; Kochia plant response rating (0 to 100 scale) ([6]; Preemergence, 500 g ai/ha): 30; Plant response rating, Foxtail, Giant [7, 22]: 40; Plant response rating, Corn [8, 22]: 0; Plant response rating, Ryegrass, Italian [9, 22]: 0; Plant response rating, Pigweed [10, 22]: 0; Plant response rating, Barnyardgrass [11, 22]: 80; Plant response rating, Galium [12, 22]: 20; Plant response rating, Blackgrass [13, 22]: 0; Plant response rating, Ragweed [14, 22]: 0; Plant response rating, Kochia [15, 22]: 0; Plant response rating, Wheat [16, 22]: 0
O=C1NCC(c2cccc(F)c2)C1C(=O)Nc1cccc(F)c1F (racemic) [Compound 375]	90	20	20	90	0	20	90	80	20	50	90	50	70	20	60	80	0	30	70	100	Foxtail, Giant plant response rating (0 to 100 scale) ([1]; Preemergence, 500 g ai/ha): 90; Ryegrass, Italian plant response rating (0 to 100 scale) ([2]; Preemergence, 500 g ai/ha): 50; Pigweed plant response rating (0 to 100 scale) ([3]; Preemergence, 500 g ai/ha): 70; Barnyardgrass plant response rating (0 to 100 scale) ([4]; Preemergence, 500 g ai/ha): 90; Ragweed plant response rating (0 to 100 scale) ([5]; Preemergence, 500 g ai/ha): 70; Kochia plant response rating (0 to 100 scale) ([6]; Preemergence, 500 g ai/ha): 70; Plant response rating, Foxtail, Giant [7, 22]: 90; Plant response rating, Corn [8, 22]: 30; Plant response rating, Ryegrass, Italian [9, 22]: 0; Plant response rating, Pigweed [10, 22]: 20; Plant response rating, Barnyardgrass [11, 22]: 90; Plant response rating, Galium [12, 22]: 40; Plant response rating, Blackgrass [13, 22]: 50; Plant response rating, Ragweed [14, 22]: 0; Plant response rating, Kochia [15, 22]: 30; Plant response rating, Wheat [16, 22]: 30
Cc1c(F)ccc(NC(=O)C2C(=O)NCC2c2cccc(C(F)(F)F)c2)c1F (stereo not drawn) [Compound 463]	80	0	0	50	0	0	70	0	30	0	70	0	70	0	0	0	0	0	25	70	Foxtail, Giant plant response rating (0 to 100 scale, 0 is no effect, 100 is complete control) [1, 23]: 90; Ryegrass, Italian plant response rating (0 to 100 scale, 0 is no effect, 100 is complete control) [2, 23]: 20; Pigweed plant response rating (0 to 100 scale, 0 is no effect, 100 is complete control) [3, 23]: 0; Barnyardgrass plant response rating (0 to 100 scale, 0 is no effect, 100 is complete control) [4, 23]: 80; Ragweed plant response rating (0 to 100 scale, 0 is no effect, 100 is complete control) [5, 23]: 0; Kochia plant response rating (0 to 100 scale, 0 is no effect, 100 is complete control) [6, 23]: 0; Foxtail, Giant plant response rating [7, 24]: 70; Corn plant response rating [8, 24]: 0; Ryegrass, Italian plant response rating [9, 24]: 0; Pigweed plant response rating [10, 24]: 0; Barnyardgrass plant response rating [11, 24]: 50; Galium plant response rating [12, 24]: 0; Blackgrass plant response rating [13, 24]: 20; Ragweed plant response rating [14, 24]: 0; Kochia plant response rating [15, 24]: 0; Wheat plant response rating [16, 24]: 0
